tested on: osteoclast differentiation; assay: Inhibitory effects on osteoclast differentiation (co-culture of bone marrow cells with osteoblast, TRAP staining); assay type: cell-based, mice; conditions: Mus musculus, Osteoclast, 168 h, read-out: % inhibitory activity on osteoclastogenesis
Protocol: The effect of benzamidine derivatives of the present invention on osteoclast proliferation and differentiation process was evaluated via co-culture with osteoblast.
Tibia and Femora were aseptically ectomized from male ddY mice of 6-8 weeks to harvest bone marrow cells by using a syringe (21G, Korea Green Cross).
The bone marrow cells were suspended in 5 mL α-MEM medium (Gibco BRL Co.) containing sodium bicarbonate (2.0 g/L), streptomycin (100 mg/L) and penicillin ([…]). The harvested cells were centrifuged at 600×g for 5 mins to collect the whole quantity. To remove the red blood cells within bone marrow cells, 3 mL of Tris HCl (0.83% NH4Cl, pH7.5) was added and well mixed. After centrifuging above cells, the numbers of bone marrow cells were counted and then, the bone marrow cells were immediately used for co-culture system with osteoblast.
The calvaria were aseptically ectomized from neonate ICR mice of 1˜2 days, washed with PBS solution and incubated with a mixture of enzyme solution (0.2% collagenase and 0.1% dispase) at 37° C. gentle shaker. This procedure was sequentially repeated (10, 10, 10, 20, 20 and 20 mins), and then the calvaria cells having the characteristics of osteoblast mostly released from III-VI digestion groups were collected and washed with the medium (serum-free α-MEM). The washed cells were cultivated in α-MEM medium containing 10% FBS for 2˜3 days. After subculturing, these cells were used for this experiment, and diluted to reach the concentration of 1×10^6 cell/mL for storage at −70° C.
Benzamidine derivatives of the present invention were dissolved in a sterile distilled water or ethanol to make desired concentrations following dilution. The final volume of specimen added to the medium was determined at the ratio of 1:1000.
Bone marrow cells prepared, in the above and osteoblast from calvaria were co-cultured for osteoclast differentiation. Both bone marrow cells (25,000 cells/cm^2) and osteoblast (10,000 cells/cm^2) were plated on a 96 well plate in α-MEM medium containing FBS with specimen, and then cultured with test materials for 7 days. Differentiation factors, such as dexamethasone (10^−7M) and vitamin D3 (10^−8M), were also continuously added to the medium from the first day of cultivation. The medium was changed with fresh media containing a mixture of specimens and differentiation factors every 2˜3 day.
TRAP was used as a marker to measure osteoclast in consideration of its characteristics showing a positive reaction to TRAP staining solution. TRAP staining solution was prepared in a manner that 5 mg of naphtol AS-MS phosphate (sigma N-4875), a substrate and 25 mg of coloring agent (Fast Red Violet LB salt) were dissolved in N,N-dimethylformamide (about 0.5 mL), 0.1N NaHCO3 buffer solution (50 mL) containing 50 mM tartaric acid was added, and the reaction mixture was stored at refrigerator prior to use.
After culturing the cells for 7 days, the medium was removed from the wells, the cells were once washed with PBS solution and fixed to PBS containing 10% formalin for 2˜5 mins. The cells were fixed again in a mixed solution of ethanol and acetone (1/1) for about 1 min, and dried off. The cells were further treated by TRAP staining solution for 15 mins and washed with PBS. The experimental results were measured by counting the number of osteoclasts with 3 or more nuclei showing TRAP-positive reaction under a microscopic examination. Each of tests was confirmed over three times for gaining more reliable data.
As shown in the following table 7, the inhibitory effect of each experimental group on the differentiation of osteoclast versus controls was expressed by inhibitory percentage value.

Compared with `CC(C)c1sc(C2CCCNC2)nc1-c1ccc(OCCCCCOc2ccc(C(=N)NO)cc2)cc1` (stereo not shown) [Example 83, N-hydroxy-4-(5-[4-(5-isopropyl-2-(piperidin-3-yl)-1,3-thiazol-4-yl)phenoxy]pentoxy)-benzamidine], `CCCCCc1nc(-c2ccc(OCCCCCOc3ccc(C(=N)NO)cc3)cc2)c(CCCC)s1` [Example 36, N-hydroxy-4-(5-[4-(5-butyl-2-pentyl-1,3-thiazol-4-yl)phenoxy]pentoxy)-benzamidine] is higher in inhibition at 1 µM: 23.8% for the first, 46.4% for the second.

same assay, conditions: Mus musculus, Osteoclast, 168 h; 1 m; co-culture of bone marrow cells and osteoblast, 7 days, TRAP-positive osteoclasts versus controls; read-out: % inhibitory activity on osteoclastogenesis

First: Cc1nc(-c2ccc(OCCC(C)(O)CCOc3ccc(C(=N)NO)cc3)cc2)c(C(C)C)s1 (stereo not shown) [Example 179, N-hydroxy-4-(3-hydroxy-5-[4-(5-isopropyl-2-methyl-1,3-thiazol-4-yl)-phenoxy]-3-methyl-pentoxy)-benzamidine]
Second: CC(C)c1sc(N(C)C)nc1-c1ccc(OCCCCCOc2ccc(C(=N)NO)cc2)cc1 [Example 161, N-hydroxy-4-(5-[4-(5-isopropyl-2-dimethylamino-1,3-thiazol-4-yl)phenoxy]pentoxy)-benzamidine]
The inhibition at 1 µM of the first is higher: 100% for the first, 89.1% for the second.

Compared with `C=Cc1sc(-c2cccnc2)nc1-c1ccc(OCCCCCOc2ccc(C(=N)NO)cc2)cc1` [Example 79, N-hydroxy-4-(5-[4-(5-vinyl-2-(pyridin-3-yl)-1,3-thiazol-4-yl)phenoxy]pentoxy)-benzamidine], `CCc1sc(N(C)Cc2cccnc2)nc1-c1ccc(OCCCCOc2ccc(C(=N)NO)cc2)cc1` [Example 200, N-hydroxy-4-(4-[4-(5-ethyl-2-[methyl-(pyridin-3-yl-methyl)amino]-thiazol-4-yl)phenoxy]butoxy)-benzamidine] is lower in inhibition at 1 µM: 96.4% for the first, 38.7% for the second.

First: CNc1nc(-c2ccc(OCCCCCOc3ccc(C(=N)NO)cc3)cc2)cs1 [Example 116, N-hydroxy-4-(5-[4-(2-methylamino-1,3-thiazol-4-yl)phenoxy]pentoxy)-benzamidine]
Second: CNc1nc(-c2ccc(OCCCCCOc3ccc(C(=N)NO)cc3)cc2)c(C(C)C)s1 [Example 103, N-hydroxy-4-(5-[4-(5-isopropyl-2-methylamino-1,3-thiazol-4-yl)phenoxy]pentoxy)-benzamidine]
The inhibition at 1 µM of the first is higher: 51.3% for the first, 25.4% for the second.

First: CCCCc1sc(N(CC)CC)nc1-c1ccc(OCCCCCOc2ccc(C(=N)NO)cc2)cc1 [Example 150, N-hydroxy-4-(5-[4-(5-butyl-2-diethylamino-1,3-thiazol-4-yl)phenoxy]pentoxy)-benzamidine]
Second: CCc1sc(CN)nc1-c1ccc(OCCCCCOc2ccc(C(=N)NO)cc2)cc1 [Example 82, N-hydroxy-4-(5-[4-(5-ethyl-2-aminomethyl-1,3-thiazol-4-yl)phenoxy]pentoxy)-benzamidine]
The inhibition at 1 µM of the first is higher: 95.4% for the first, 8.9% for the second.

First: COCCN(CCOC)c1nc(-c2ccc(OCCCCCOc3ccc(C(=N)NO)cc3)cc2)c(C)s1 [Example 122, N-hydroxy-4-(5-[4-(2-(bis-(2-methoxyethyl)-amino)-5-methyl-1,3-thiazol-4-yl)phenoxy]pentoxy)-benzamidine]
Second: CC(C)c1sc(N(C)CCO)nc1-c1ccc(OCCCCCOc2ccc(C(=N)NO)cc2)cc1 [Example 140, N-hydroxy-4-(5-[4-(2-((2-hydroxyethyl)-methyl-amino)-5-isopropyl-1,3-thiazol-4-yl)phenoxy]pentoxy)-benzamidine]
The inhibition at 1 µM of the first is higher: 55.8% for the first, 18.9% for the second.

Compared with `Cc1nc(-c2ccc(OCCCCCN(C)c3ccc(C(=N)NO)cc3)cc2)c(C(C)C)s1` [Example 183, N-hydroxy-4-(5-[4-(5-isopropyl-2-methyl-1,3-thiazol-4-yl)-phenoxy]-pentyl-methyl-amino)-benzamidine], `CC(C)Cc1sc(N(C)CCN2CCOCC2)nc1-c1ccc(OCCCCCOc2ccc(C(=N)NO)cc2)cc1` [Example 154, N-hydroxy-4-(5-[4-(5-isobutyl-2-[methyl-(2-morpholinoethyl)amino]-1,3-thiazol-4-yl)phenoxy]pentoxy)-benzamidine] is lower in inhibition at 1 µM: 65.6% for the first, 9.3% for the second.

Compared with `CC(C)c1nc(-c2ccc(OCc3ccc(COc4ccc(C(=N)NO)cc4)cc3)cc2)c(CC2CCCC2)s1` [Example 201, N-hydroxy-4-(4-[4-(5-cyclopentylmethyl-2-isopropyl-thiazol-4-yl)-phenoxymethyl]-benzyloxy)-benzamidine], `CN1CCN(c2nc(-c3ccc(OCCCCCOc4ccc(C(=N)NO)cc4)cc3)c(CC3CCCC3)s2)CC1` [Example 170, N-hydroxy-4-(5-(4-[5-cyclopentylmethyl-2-(4-methylpiperazino)-1,3-thiazol-4-yl]phenoxy)-pentoxy)-benzamidine] is higher in inhibition at 1 µM: 85.6% for the first, 93.9% for the second.

Going from `CCc1sc(N(C)CCN2CCOCC2)nc1-c1ccc(OCCCCCOc2ccc(C(=N)NO)cc2)cc1` [Example 131, N-hydroxy-4-(5-[4-(5-ethyl-2-(methyl-(2-morpholinoethyl)-amino)-1,3-thiazol-4-yl)phenoxy]pentoxy)-benzamidine] to `C=Cc1sc(N2CCOCC2)nc1-c1ccc(OCCCCCOc2ccc(C(=N)NO)cc2)cc1` [Example 171, N-hydroxy-4-(5-[4-(5-vinyl-2-morpholin-4-yl-1,3-thiazol-4-yl)phenoxy]pentoxy)-benzamidine], the inhibition at 1 µM rises from 69% to 96.2%.

Going from `Cc1nc(-c2ccc(OCCCCCOc3ccc(C(=N)NO)c(F)c3)cc2F)c(C(C)C)s1` [Example 192, N-hydroxy-2-fluoro-4-(5-[3-fluoro-4-(5-isopropyl-2-methyl-1,3-thiazol-4-yl)-phenoxy]-pentoxy)-benzamidine] to `CCCNc1nc(-c2ccc(OCCCCCOc3ccc(C(=N)NO)cc3)cc2)c(C2CCCC2)s1` [Example 113, N-hydroxy-4-(5-[4-(5-cyclopentyl-2-propylamino-1,3-thiazol-4-yl)phenoxy]pentoxy)-benzamidine], the inhibition at 1 µM rises from 70.5% to 86.7%.

same assay, conditions: Mus musculus, Osteoclast, 168 h; 1 μm; co-culture of bone marrow cells and osteoblast, 7 days, TRAP-positive osteoclasts versus controls; read-out: % inhibitory activity on osteoclastogenesis

Going from `CC(C)c1nc(-c2ccc(OCCCCCOc3ccc(C(=N)N)cc3)cc2)cs1` [Example 53, 4-(5-[4-(2-isopropyl-1,3-thiazol-4-yl)phenoxy]pentoxy)-benzamidine] to `CC(C)c1nc(-c2ccc(OCCCCCOc3ccc(C(=N)NO)cc3)cc2)c(C(C)C)s1` [Example 25, N-hydroxy-4-(5-[4-(2,5-diisopropyl-1,3-thiazol-4-yl)phenoxy]pentoxy)-benzamidine], the inhibition at 1 µM rises from 0% to 26.5%.

Going from `CCc1nc(-c2ccc(OCCCCCOc3ccc(C(=N)NO)cc3)cc2)c(C(C)C)s1` [Example 24, N-hydroxy-4-(5-[4-(2-ethyl-5-isopropyl-1,3-thiazol-4-yl)phenoxy]pentoxy)-benzamidine] to `CC(C)c1sc(NC(=N)N)nc1-c1ccc(OCCCCCOc2ccc(C(=N)NO)cc2)cc1` [Example 62, N-hydroxy-4-(5-[4-(2-guanidino-5-isopropyl-1,3-thiazol-4-yl)phenoxy]pentoxy)-benzamidine], the inhibition at 1 µM falls from 57.8% to 19.1%.

Going from `CC(C)c1sc(-c2ccccc2)nc1-c1ccc(OCCCCCOc2ccc(C(=N)NO)cc2)cc1` [Example 26, N-hydroxy-4-(5-[4-(5-isopropyl-2-phenyl-1,3-thiazol-4-yl)phenoxy]pentoxy)-benzamidine] to `Cc1nc(-c2ccc(OCCCCCOc3ccc(C(=N)NO)cc3)cc2)c(CC(C)C)s1` [Example 44, N-hydroxy-4-(5-[4-(5-isobutyl-2-methyl-1,3-thiazol-4-yl)phenoxy]pentoxy)-benzamidine], the inhibition at 1 µM rises from 42.9% to 96.6%.

same assay, conditions: co-culture of bone marrow cells and osteoblast, 7 days, TRAP-positive osteoclasts versus controls

Going from `COc1cc(C(=N)NO)ccc1OCCCCCOc1ccc(-c2nc(C)sc2C(C)C)cc1` [Example 189, N-hydroxy-4-(5-[4-(5-isopropyl-2-methyl-1,3-thiazol-4-yl)-phenoxy]-pentoxy-3-methoxy)-benzamidine] to `CCc1sc(NCc2cccnc2)nc1-c1ccc(OCCCCCOc2ccc(C(=N)NO)cc2)cc1` [Example 117], the “% inhibitory activity on osteoclastogenesis” value falls from 38.7% to 2.7%.

— patent publication US8178688B2, “Benzamidine derivatives, process for the preparation thereof and pharmaceutical composition comprising the same” (Dong Wha Pharmaceutical Co., Ltd., priority 2004, dated 2012)
